Laboratory results taken from patent publication US10994015B2, “EGFR proteolysis targeting chimeric molecules and associated methods of use” (Arvinas Operations, Inc., priority 2016, dated 2021).

How the values were obtained:
[1] = biological target: EGFR L858R/T790M/C797S triple mutant (H520*) (Homo sapiens (Human), UniProt P00533, C797S/L858R/T790M); test: EGFR protein degradation assay (Western blot); assay type: cell-based; settings: 72 hours, 300 nM to 10 nM
Description: (§1) EGFR Protein Degradation assay
Cells were incubated overnight at 37° C., 5% CO2 prior to compound addition. A 10 mM compound stock in DMSO was serially diluted in DMSO to provide the following stock concentrations: 1, 0.3, 0.1, 0.03 and 0.01 mM. An appropriate volume of each compound dilution, together with a DMSO vehicle control, was added to media to provide a 2× compound solution. […] At the end of the compound treatment, cells were washed once with ice-cold phosphate-buffered saline (PBS) and treated with lysis solution (1× lysis buffer, Cell Signaling Technologies (CST #9803) supplemented with Piarce™ protease inhibitors, #A32953, Thermo Fisher Scientific, TFS). Lysates were collected and clarified of cell debris by spinning at 10K rpm for 10 minutes. A specific volume of supernatant was retrieved for protein quantification (Pierce™ BCA kit, TFS #23225) and for Western analysis. Loading buffer supplemented with EDTA and reducing agent was added to each supernatant. A specific volume of supernatant (determined by protein assay: […] loaded per sample) was loaded into a NuPAGE™ 4-12% Bis-Tris gel (TFS). Samples were run at 165V in MOPS running buffer for 2 hours and then transferred to PVDF blotting membrane using a dry blotting system (iBlot2, TFS). Membranes were blocked in Tris-buffered saline supplemented with Tween, 0.1% (TBST) containing 5% non-fat dry milk, (AmericanBio). Following block, membranes were washed once with TBST. […] Membranes were washed 3× with TBST prior to addition of secondary antibody (1:10 000, anti-rabbit HRP-linked, CST #7074) in TBST with 3% BSA and then incubated at room temperature for one hour. Membranes were then washed 3× with TBS and signal developed by exposure to developer (SuperSignal West Femto, TFS) for 5 minutes. Membranes were then immediately imaged using a BioRad Chemidoc.

EGFR WT = EGFR WT (Homo sapiens (Human), UniProt P00533); test: TR-FRET assay for ERBB kinases; assay type: biochemical; settings: geometric mean if measured more than once
How it was run: (§2)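 HEPES pH 7.5 buffer with 10 mM MgCl2 and 1 mM DTT; 10 min enzyme–compound pre-incubation. A 10 min room-temperature reaction was initiated by a mix carrying 3 mM ATP, stopped with EDTA, and detected by time-resolved FRET at 340 nm excitation.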

EGFR L858R/T790M/C797S = EGFR L858R/T790M/C797S (Homo sapiens (Human), UniProt P00533, C797S/L858R/T790M); test: TR-FRET assay for ERBB kinases; assay type: biochemical; settings: geometric mean if measured more than once
How it was run: as §2

EGFR L858R/T790M = EGFR L858R/T790M (Homo sapiens (Human), UniProt P00533, L858R/T790M); test: TR-FRET assay for ERBB kinases; assay type: biochemical; settings: geometric mean if measured more than once
How it was run: as §2

EGFR Exon20NPG = EGFR Exon20NPG (Homo sapiens (Human), UniProt P00533, INS770NPG); test: TR-FRET assay for ERBB kinases; assay type: biochemical; settings: geometric mean if measured more than once
How it was run: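 Phosphorylation of fluorescein-labeled poly-GluTyr read as TR-FRET using Tb-pY20 antibody after EDTA stop, with 340 nm excitation. Kinase reaction ran 10 min at room temperature following 10 min compound pre-incubation; substrate mix held 3 mM ATP and 30 µM peptide before addition. Buffer was HEPES pH 7.5.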

[2] = biological target: EGFR L858R/T790M double mutant (H1975) (Homo sapiens (Human), UniProt P00533, L858R/T790M); test: EGFR protein degradation assay (Western blot); assay type: cell-based; settings: 72 hours, 300 nM to 10 nM
Description: as §1
Cells expressing the appropriate form of EGFR were seeded in 6-well plates (300,000 cells per well) and allowed to adhere to the plate overnight. […] To harvest cells, media was removed and cells were washed once with ice-cold phosphate-buffered saline (PBS) prior to the addition of 400 μl lysis buffer (Cell Signaling Technology) supplemented with a protease inhibitor cocktail (Thermo Scientific). Cells were scraped from the plate and the cell lysate transferred to an Eppendorf tube and then clarified by a single spin at 10 000 rpm for 10 minutes. The protein concentration of each lysate was determined (BCA kit, Thermo Scientific) prior to the addition of loading buffer (Invitrogen) and reducing agent (Invitrogen). 10 μg protein of each lysate was loaded on an SDS/PAGE gel and run at 165V for 2 hours. Following transfer to a PVDF membrane (iBlot2, Thermo Fisher Scientific), the membrane was blocked in Tris-buffered saline containing 0.1% Tween-20 (TBS-T) and supplemented with 5% powdered milk for 1 hour. Membranes were then probed with EGFR and tubulin (loaded control) primary antibodies in TBS-T containing 3% bovine serum albumin (BSA) overnight at 4° C. Membranes were washed thrice with TBS-T before incubation with secondary antibody in TBS-T containing 3% bovine serum albumin (BSA) and incubated for 1 hour at room temperature. Following 3 further washes with TBS, membrane proteins of interest were detected by enzyme-linked chemiluminescence (ECL) using a Chemidoc (Bio-Rad).

Sequence of EGFR Exon20NPG (P00533 other isoform, or with tags, fused parts or gaps del 1-694/ins NPG behind 770 limits assumed): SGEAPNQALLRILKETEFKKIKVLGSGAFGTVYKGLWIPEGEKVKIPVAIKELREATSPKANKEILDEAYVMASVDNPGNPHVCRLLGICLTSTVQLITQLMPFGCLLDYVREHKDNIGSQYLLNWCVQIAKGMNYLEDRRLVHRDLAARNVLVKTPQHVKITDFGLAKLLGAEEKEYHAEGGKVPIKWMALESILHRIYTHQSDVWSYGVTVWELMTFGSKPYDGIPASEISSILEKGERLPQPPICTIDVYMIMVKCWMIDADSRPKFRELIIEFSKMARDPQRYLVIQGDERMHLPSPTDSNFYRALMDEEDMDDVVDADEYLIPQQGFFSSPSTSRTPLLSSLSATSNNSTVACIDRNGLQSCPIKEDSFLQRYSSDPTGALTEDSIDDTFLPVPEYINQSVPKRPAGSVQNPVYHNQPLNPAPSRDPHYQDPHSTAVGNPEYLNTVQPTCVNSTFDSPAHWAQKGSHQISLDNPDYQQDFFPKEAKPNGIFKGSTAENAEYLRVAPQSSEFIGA
Sequence of EGFR L858R/T790M/C797S triple mutant (H520*) (P00533 25-1210 T790M/C797S/L858R): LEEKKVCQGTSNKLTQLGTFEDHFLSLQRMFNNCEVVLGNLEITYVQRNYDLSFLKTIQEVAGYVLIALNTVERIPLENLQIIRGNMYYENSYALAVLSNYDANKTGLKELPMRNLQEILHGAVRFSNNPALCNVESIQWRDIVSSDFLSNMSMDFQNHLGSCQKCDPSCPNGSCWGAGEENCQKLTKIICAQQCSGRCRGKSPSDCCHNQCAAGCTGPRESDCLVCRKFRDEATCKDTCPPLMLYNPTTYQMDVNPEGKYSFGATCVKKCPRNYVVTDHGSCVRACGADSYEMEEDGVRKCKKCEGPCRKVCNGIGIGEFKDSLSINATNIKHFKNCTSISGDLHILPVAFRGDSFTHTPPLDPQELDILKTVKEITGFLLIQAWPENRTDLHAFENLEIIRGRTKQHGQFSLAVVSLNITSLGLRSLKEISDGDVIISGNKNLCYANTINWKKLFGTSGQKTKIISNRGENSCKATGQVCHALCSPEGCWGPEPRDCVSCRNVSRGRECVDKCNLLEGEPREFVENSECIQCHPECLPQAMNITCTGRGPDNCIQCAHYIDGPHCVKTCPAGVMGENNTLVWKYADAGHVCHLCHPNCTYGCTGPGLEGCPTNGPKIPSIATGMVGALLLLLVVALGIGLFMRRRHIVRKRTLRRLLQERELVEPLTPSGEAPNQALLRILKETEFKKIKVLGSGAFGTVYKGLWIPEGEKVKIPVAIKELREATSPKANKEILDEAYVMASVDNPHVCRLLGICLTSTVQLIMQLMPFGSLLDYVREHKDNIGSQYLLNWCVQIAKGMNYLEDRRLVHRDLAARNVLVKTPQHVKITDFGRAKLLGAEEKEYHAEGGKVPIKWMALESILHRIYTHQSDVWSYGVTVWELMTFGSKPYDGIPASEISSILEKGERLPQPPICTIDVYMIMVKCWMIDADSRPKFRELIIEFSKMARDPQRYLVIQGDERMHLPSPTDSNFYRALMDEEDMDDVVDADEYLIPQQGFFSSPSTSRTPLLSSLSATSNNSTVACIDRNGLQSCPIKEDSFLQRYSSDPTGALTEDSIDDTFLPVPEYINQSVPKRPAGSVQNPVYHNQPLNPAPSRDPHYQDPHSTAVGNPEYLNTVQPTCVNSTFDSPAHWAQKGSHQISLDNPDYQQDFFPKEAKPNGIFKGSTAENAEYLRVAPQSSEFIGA
Sequence of EGFR L858R/T790M/C797S (P00533 25-1210 T790M/C797S/L858R): as above
Sequence of EGFR WT (P00533 25-1210): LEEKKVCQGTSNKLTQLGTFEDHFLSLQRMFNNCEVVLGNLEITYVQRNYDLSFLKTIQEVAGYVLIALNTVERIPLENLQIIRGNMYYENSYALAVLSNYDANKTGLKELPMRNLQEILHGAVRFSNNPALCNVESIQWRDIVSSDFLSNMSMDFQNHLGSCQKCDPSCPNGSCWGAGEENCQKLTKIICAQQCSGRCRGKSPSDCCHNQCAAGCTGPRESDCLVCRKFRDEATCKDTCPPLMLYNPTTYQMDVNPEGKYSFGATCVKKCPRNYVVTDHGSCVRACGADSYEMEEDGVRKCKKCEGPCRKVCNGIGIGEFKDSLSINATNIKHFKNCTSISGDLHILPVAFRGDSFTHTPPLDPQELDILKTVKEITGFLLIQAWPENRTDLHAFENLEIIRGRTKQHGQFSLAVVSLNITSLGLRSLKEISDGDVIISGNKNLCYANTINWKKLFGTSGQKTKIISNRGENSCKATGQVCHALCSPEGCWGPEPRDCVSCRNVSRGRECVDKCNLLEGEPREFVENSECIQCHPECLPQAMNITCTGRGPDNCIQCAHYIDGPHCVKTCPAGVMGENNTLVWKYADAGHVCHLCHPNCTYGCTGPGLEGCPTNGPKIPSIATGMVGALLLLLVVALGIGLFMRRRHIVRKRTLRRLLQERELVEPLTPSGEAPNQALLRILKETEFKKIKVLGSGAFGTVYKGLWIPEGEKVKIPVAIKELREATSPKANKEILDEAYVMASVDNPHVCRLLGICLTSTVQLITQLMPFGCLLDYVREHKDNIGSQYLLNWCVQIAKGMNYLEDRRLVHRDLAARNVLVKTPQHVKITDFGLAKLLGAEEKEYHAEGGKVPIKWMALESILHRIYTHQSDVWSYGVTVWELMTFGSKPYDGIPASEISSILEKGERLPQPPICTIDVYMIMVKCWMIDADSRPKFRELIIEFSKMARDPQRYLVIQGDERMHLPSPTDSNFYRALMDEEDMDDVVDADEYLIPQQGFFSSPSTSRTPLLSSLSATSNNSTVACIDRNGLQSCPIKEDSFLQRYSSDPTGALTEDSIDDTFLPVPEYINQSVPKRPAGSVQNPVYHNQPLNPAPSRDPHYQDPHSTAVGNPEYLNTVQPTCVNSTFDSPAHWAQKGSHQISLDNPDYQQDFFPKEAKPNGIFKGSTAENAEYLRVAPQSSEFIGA

SMILES	EGFR protein remaining, EGFR L858R/T790M/C797S triple mutant [1]	IC50 (EGFR WT)	IC50 (EGFR L858R/T790M/C797S)	IC50 (EGFR L858R/T790M)	IC50 (EGFR Exon20NPG)	EGFR protein remaining, EGFR L858R/T790M double mutant [2]
Cc1ncsc1-c1ccc(CNC(=O)[C@@H]2C[C@@H](O)CN2C(=O)[C@H](C(C)C)N2Cc3ccccc3C2=O)c(OCCOCCOCCOCCOCC#Cc2cccc3c2C(=O)N([C@@H](C(=O)Nc2nccs2)c2cc(F)ccc2O)C3)c1 [compound 259]	C (>80% EGFR protein remaining after 72 hours of incubation with the test compound at a concentration of 300 nM)	2.1 µM	0.55 µM	3.1 µM	2.1 µM	C (>80% EGFR protein remaining after 72 hours of incubation with the test compound at a concentration of 300 nM)
Cc1ncsc1-c1ccc([C@H](C)NC(=O)[C@H]2C[C@H](O)CN2C(=O)[C@@H](NC(=O)COCCCC#Cc2cccc3c2C(=O)N(C(C(=O)Nc2nccs2)c2cc(F)ccc2O)C3)C(C)(C)C)cc1 (stereo partly drawn) [compound 92]	C (>80% EGFR protein remaining after 72 hours of incubation with the test compound at a concentration of 300 nM)	9.8 µM	1.1 µM	6.2 µM	3.1 µM	C (>80% EGFR protein remaining after 72 hours of incubation with the test compound at a concentration of 300 nM)
O=C1CCC(N2C(=O)c3cccc(NCCOCCOCCOCCOCCOCC#Cc4cccc5c4C(=O)N([C@@H](C(=O)Nc4nccs4)c4cc(F)ccc4O)C5)c3C2=O)C(=O)N1 (stereo partly drawn) [compound 267]	C (>80% EGFR protein remaining after 72 hours of incubation with the test compound at a concentration of 300 nM)	30 µM	1.4 µM	30 µM	30 µM	C (>80% EGFR protein remaining after 72 hours of incubation with the test compound at a concentration of 300 nM)
O=C1CCC(N2C(=O)c3cccc(NCCOCCOCCOCCOCC#Cc4cccc5c4C(=O)N([C@@H](C(=O)Nc4nccs4)c4cc(F)ccc4O)C5)c3C2=O)C(=O)N1 (stereo partly drawn) [compound 266]	C (>80% EGFR protein remaining after 72 hours of incubation with the test compound at a concentration of 300 nM)	10 µM	2.6 µM	> 30 µM	> 30 µM	C (>80% EGFR protein remaining after 72 hours of incubation with the test compound at a concentration of 300 nM)
Cc1ncsc1-c1ccc(CNC(=O)[C@@H]2C[C@@H](O)CN2C(=O)[C@H](C(C)C)N2Cc3ccccc3C2=O)c(OCCOCCOCCOCC#Cc2cccc3c2C(=O)N([C@@H](C(=O)Nc2nccs2)c2cc(F)ccc2O)C3)c1 [compound 258]	C (>80% EGFR protein remaining after 72 hours of incubation with the test compound at a concentration of 300 nM)	1.7 µM	4 µM	5.9 µM	4.9 µM	C (>80% EGFR protein remaining after 72 hours of incubation with the test compound at a concentration of 300 nM)
Cc1ncsc1-c1ccc(CNC(=O)[C@@H]2C[C@@H](O)CN2C(=O)[C@H](C(C)C)N2Cc3ccccc3C2=O)c(OCCOCCOCC#Cc2cccc3c2C(=O)N([C@@H](C(=O)Nc2nccs2)c2cc(F)ccc2O)C3)c1 (single isomer, unassigned) [Example 257]	C (>80% EGFR protein remaining after 72 hours of incubation with the test compound at a concentration of 300 nM)	5.7 µM	2.7 µM	> 30 µM	> 30 µM	C (>80% EGFR protein remaining after 72 hours of incubation with the test compound at a concentration of 300 nM)
Cc1ncsc1-c1ccc([C@H](C)NC(=O)[C@H]2C[C@H](O)CN2C(=O)[C@@H](NC(=O)COCCCOCCCC#Cc2cccc3c2C(=O)N(C(C(=O)Nc2nccs2)c2cc(F)ccc2O)C3)C(C)(C)C)cc1 (stereo partly drawn) [compound 93]	C (>80% EGFR protein remaining after 72 hours of incubation with the test compound at a concentration of 300 nM)	11 µM	0.53 µM	3.5 µM	3.3 µM	C (>80% EGFR protein remaining after 72 hours of incubation with the test compound at a concentration of 300 nM)
Cc1ncsc1-c1ccc(CNC(=O)[C@@H]2C[C@@H](O)CN2C(=O)[C@H](C(C)C)N2Cc3ccccc3C2=O)c(OCCOCCOCCOCCOCCOCC#Cc2cccc3c2C(=O)N([C@@H](C(=O)Nc2nccs2)c2cc(F)ccc2O)C3)c1 [compound 260]	C (>80% EGFR protein remaining after 72 hours of incubation with the test compound at a concentration of 300 nM)	3.2 µM	0.56 µM	20 µM	> 30 µM	C (>80% EGFR protein remaining after 72 hours of incubation with the test compound at a concentration of 300 nM)
O=C1CCC(N2C(=O)c3ccc(OCCOCCOCC#Cc4cccc5c4C(=O)N([C@@H](C(=O)Nc4nccs4)c4cc(F)ccc4O)C5)cc3C2=O)C(=O)N1 (stereo partly drawn) [compound 261]	C (>80% EGFR protein remaining after 72 hours of incubation with the test compound at a concentration of 300 nM)	2.2 µM	0.18 µM	3.5 µM	4.9 µM	C (>80% EGFR protein remaining after 72 hours of incubation with the test compound at a concentration of 300 nM)
Cc1ncsc1-c1ccc(CNC(=O)[C@@H]2C[C@@H](O)CN2C(=O)[C@H](C(C)C)N2Cc3ccccc3C2=O)c(OCCOCCOCC#Cc2cccc3c2C(=O)N([C@@H](C(=O)Nc2nccs2)c2cc(F)ccc2O)C3)c1 (single isomer, unassigned) [Example 256]	C (>80% EGFR protein remaining after 72 hours of incubation with the test compound at a concentration of 300 nM)	2.5 µM	1.4 µM	14 µM	6.1 µM	C (>80% EGFR protein remaining after 72 hours of incubation with the test compound at a concentration of 300 nM)
